Measurements published in article PMC11292009, “Mapping protein binding sites by photoreactive fragment pharmacophores” (Communications Chemistry, 2024).

Experiments:
Assay type in all cases: binding
[1] = tested on: carbonic anhydrase II (CA); assay: Intact protein MS photoaffinity labeling screen, carbonic anhydrase; conditions: intact protein MS after 10 min irradiation
How it was run: (§1)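 Fragments tested one per well, each incubated 15 min with protein to form non-covalent complexes before photo-crosslinking. Labeling read directly by intact protein MS as mass additions matching fragment adducts, expressed as labeling %.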

[2] = tested on: T1, BRD4-BD1; assay: Intact MS photoaffinity labeling screen, BRD4-BD1 (302 nm, LCMS-TOF); conditions: for MS labeling percentage, BRD4: BRD4-BD1, 302 nm 10 min; for BRD4-BD1: experimental hit status flag (0/1); for experimental hit status BRD4-BD1: 0/1 flag
T1 construct: screened the PhP library against the first bromodomain of BRD4 (BRD4-BD1); purchased GSK/GenScript
How it was run: (§2)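 Labeling detected as mass additions in deconvoluted intact-protein LCMS-TOF spectra. Protein at 1 μM in PBS was first mixed with one fragment per well on ice for 15 min, followed by 10 min UV exposure at 302 nm.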

[3] = tested on: T2, KRas^G12D; assay: Intact MS photoaffinity labeling screen, KRas G12D (302 nm, LCMS-TOF); conditions: for MS labeling percentage, KRas: KRas G12D, 302 nm 10 min; for KRAS-G12D: experimental hit status flag (0/1); for experimental hit status KRAS-G12D: 0/1 flag
T2 construct: purchased GSK/GenScript
How it was run: as §2

[4] = tested on: lysozyme (Lyo); assay: Intact protein MS photoaffinity labeling screen, lysozyme; conditions: intact protein MS after 10 min irradiation
How it was run: as §1

[5] = tested on: myoglobin (Myo); assay: Intact protein MS photoaffinity labeling screen, myoglobin; conditions: intact protein MS after 10 min irradiation
How it was run: as §1

[6] = tested on: T3, STAT5B-NTD; assay: Intact MS photoaffinity labeling screen, STAT5B-NTD (365 nm, UHPLC-MS); conditions: for MS labeling percentage, STAT5B: STAT5B-NTD, 365 nm 10 min, no photocatalyst; for STAT5B-NTD: experimental hit status flag (0/1); for experimental hit status STAT5B-NTD: 0/1 flag;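 on MS labeling percentage, STAT5B: 0.17 µL of 100 mM DMSO fragment stock added to the protein sample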
T3 construct: His-SUMO (N, cleaved yes); made in house; host or cells: E. coli BL21 RILP
How it was run: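 UV irradiation at 365 nm for 10 min at 4 °C. Labeling read by intact-protein UHPLC-MS, positive ion mode, m/z 100–2000.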

[7] = tested on: T3, STAT5B-NTD; assay: Intact MS labeling screen, STAT5B-NTD conjugated with photocatalyst Ir-G2-PEG3-COOH (450 nm); conditions: 450 nm 10 min;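 further: 0.14 µL of 100 mM DMSO fragment stock added to the conjugate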
How it was run: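 Ir-G2-PEG3-COOH photocatalyst (10 eq) activated 30 min with EDC/NHS/BOP, then conjugated to STAT5B-NTD (7 µM) overnight at RT or 1 h at 37 °C in dark. PhP added, 1 h dark, then 450 nm irradiation 10 min at 4 °C; labeling read by intact LC-MS, positive ion mode, m/z 100–2000.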

[8] = sheet PhP, experimental hit status flag given as 0 or 1
[9] = hit flag 1/0, sheet PhP, photoaffinity labeling screen
[10] = PhP library sheet "PhP", binary flag printed as 0 or 1, key not given

Structure (SMILES) | MS labeling percentage, CA [1] [%] | MS labeling percentage, BRD4 [2] [%] | MS labeling percentage, KRas [3] [%] | MS labeling percentage, Lyo [4] [%] | MS labeling percentage, Myo [5] [%] | MS labeling percentage, STAT5B [6] [%] | MS labeling percentage, STAT5B+photocat [7] [%] | experimental hit status BRD4-BD1 [2] | experimental hit status KRAS-G12D [3] | experimental hit status STAT5B-NTD [6] | also measured
Cc1[nH]cnc1CNC(=O)CCC1(C)N=N1 [PhP009, Cc1[nH]cnc1CNC(=O)CCC2(C)N=N2] | 0.6 | 0.7 | 0.7 | 0 | 0.4 | 1 | 1 | – | – | – | BRD4-BD1 [2]: 0; KRAS-G12D [3]: 0; STAT5B-NTD [6]: 0
Cc1nn(C)cc1CNC(=O)CCC1(C)N=N1 [PhP021, Cc1nn(C)cc1CNC(=O)CCC2(C)N=N2] | 0.7 | 0.9 | 0.2 | 0 | 0.3 | 1 | 0.4 | 0 | 0 | 0 | –
CC1(CCC(=O)NCCc2c[nH]c3ccc(OCc4ccccc4)cc23)N=N1 [PhP081, N1=NC1(C)CCC(=O)NCCc(c[nH]2)c(c23)cc(cc3)OCc4ccccc4] | 0 | 0.5 | 0.5 | 2.8 | 0.3 | 1 | 4 | – | – | – | BRD4-BD1 (experimental hit status) [2, 10]: 0; KRAS-G12D (experimental hit status) [3, 10]: 0; STAT5B-NTD (experimental hit status) [6, 10]: 0
Cc1nc2cc(NC(=O)CCC3(C)N=N3)ccc2n1-c1ccccc1 [PhP017, c1ccccc1-n(c(n2)C)c(c23)ccc(c3)NC(=O)CCC4(C)N=N4] | 0.6 | 3.4 | 0.9 | 0.1 | 0.5 | 1 | 4.4 | – | – | – | BRD4-BD1 [2]: 0; KRAS-G12D [3]: 0; STAT5B-NTD [6]: 0
CC1(CCC(=O)Nc2sc3c(c2C(N)=O)CCC(C(C)(C)C)C3)N=N1 (stereo not shown) [PhP049, CC(C)(C)C(CC1)Cc(c12)sc(c2C(=O)N)NC(=O)CCC3(C)N=N3] | 0.2 | 0 | 0.1 | 0 | 0.1 | 1 | 2 | – | – | – | BRD4-BD1 (experimental hit status) [2, 9]: 0; KRAS-G12D (experimental hit status) [3, 9]: 0; STAT5B-NTD (experimental hit status) [6, 9]: 0
CC1(CCC(=O)NCc2ccccc2O)N=N1 [PhP028, N1=NC1(C)CCC(=O)NCc2ccccc2O] | 0 | 57 | 0.4 | 0 | 0.2 | 1 | 0.3 | 0 | 0 | 0 | –
Cc1cccc2nc(CNC(=O)CCC3(C)N=N3)[nH]c12 [PhP023, c1ccc(C)c(c12)[nH]c(n2)CNC(=O)CCC3(C)N=N3] | 0.3 | 0.9 | 0.7 | 0 | 0.2 | 1 | 0 | 0 | 0 | 0 | –

Further lines, with some results ahead:

MS labeling percentage, CA [1] [%] | Structure (SMILES) | MS labeling percentage, BRD4 [2] [%] | MS labeling percentage, KRas [3] [%] | MS labeling percentage, Lyo [4] [%] | MS labeling percentage, Myo [5] [%] | MS labeling percentage, STAT5B [6] [%] | MS labeling percentage, STAT5B+photocat [7] [%] | experimental hit status BRD4-BD1 [2] | experimental hit status KRAS-G12D [3] | experimental hit status STAT5B-NTD [6] | also measured
2.3 | COc1ccc(OC)c(C(C)NC(=O)CCC2(C)N=N2)c1 (stereo not shown) [PhP062, COc1ccc(OC)c(c1)C(C)NC(=O)CCC2(C)N=N2] | 7.9 | 63.2 | 1 | 1.1 | 2 | 1.9 | – | – | – | BRD4-BD1 (experimental hit status) [2, 8]: 0; KRAS-G12D (experimental hit status) [3, 8]: 0; STAT5B-NTD (experimental hit status) [6, 8]: 0
0.2 | CC(C)CN1CCOC(CNC(=O)CCC2(C)N=N2)C1 (stereo not shown) [PhP046, CC(C)CN1CCOC(C1)CNC(=O)CCC2(C)N=N2] | 0.1 | 0.2 | 0 | 0.3 | 1 | 0.7 | – | – | – | BRD4-BD1 (experimental hit status) [2, 9]: 0; KRAS-G12D (experimental hit status) [3, 9]: 0; STAT5B-NTD (experimental hit status) [6, 9]: 0
0.2 | CC1(CCC(=O)NCc2ccccc2NS(C)(=O)=O)N=N1 [PhP025, CS(=O)(=O)Nc1ccccc1CNC(=O)CCC2(C)N=N2] | 0.2 | 0.1 | 0 | 0.1 | 0 | 1.2 | 0 | 0 | 0 | –
0 | CC1(CCC(=O)NCCN2CCN(c3ccc(C(F)(F)F)cn3)CC2)N=N1 [PhP096, N1=NC1(C)CCC(=O)NCCN2CCN(CC2)c3ccc(cn3)C(F)(F)F] | 0.3 | 0 | 0 | 0.1 | 0 | 1.1 | – | – | – | BRD4-BD1 (experimental hit status) [2, 10]: 0; KRAS-G12D (experimental hit status) [3, 10]: 0; STAT5B-NTD (experimental hit status) [6, 10]: 0
0.4 | CC1(CCC(=O)NC2CCc3[nH]cnc3C2)N=N1 (stereo not shown) [PhP085, N1=NC1(C)CCC(=O)NC(CC2)Cc(c23)nc[nH]3] | 0.3 | 0.3 | 0 | 0.1 | 1 | 1.2 | – | – | – | BRD4-BD1 (experimental hit status) [2, 10]: 0; KRAS-G12D (experimental hit status) [3, 10]: 0; STAT5B-NTD (experimental hit status) [6, 10]: 0
0.3 | CC1(CCC(=O)NCCCc2nc[nH]n2)N=N1 [PhP066, N1=NC1(C)CCC(=O)NCCCc2nc[nH]n2] | 0.3 | 0.2 | 0 | 0.3 | 0 | 0 | – | – | – | BRD4-BD1 (experimental hit status) [2, 8]: 0; KRAS-G12D (experimental hit status) [3, 8]: 0; STAT5B-NTD (experimental hit status) [6, 8]: 0
